For 16 compounds, T/C results are on record in PubChem BioAssay AID328 (DTP/NCI, 2004).

The test system of this assay is BDF1 mice, P388 leukemia ip, median survival T/C. In words: NCI In Vivo Anticancer Drug Screen. Data for tumor model P388 Leukemia (intraperitoneal) in B6D2F1 (BDF1) mice. The conditions noted are these: endpoint: median survival time, higher = longer survival. The method, boiled down:
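Transplantable tumour in mice; compound vs vehicle dosing; survival scored; ratio of treated to control reported.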

[1] abbreviates: dose: 3.13 mg/kg/injection, schedule: Q01DX009 (ip), vehicle: saline with Tween-80.
The mark [2] stands for this setting: dose: 25.0 mg/kg/injection, schedule: Q01DX009 (ip), vehicle: Klucel (hydroxypropylcellulose) (HPC).
Where [3] appears, read: dose: 50.0 mg/kg/injection, schedule: Q01DX009 (ip), vehicle: Klucel (hydroxypropylcellulose) (HPC).
[4] abbreviates: dose: 100.0 mg/kg/injection, schedule: Q01DX009 (ip), vehicle: Klucel (hydroxypropylcellulose) (HPC).
[5] abbreviates: dose: 100.0 mg/kg/injection, schedule: Q04DX003 (ip), vehicle: saline.
Where [6] appears, read: dose: 200.0 mg/kg/injection, schedule: Q04DX003 (ip), vehicle: saline.
[7] abbreviates: dose: 200.0 mg/kg/injection, schedule: Q01DX009 (ip), vehicle: Klucel (hydroxypropylcellulose) (HPC).
The mark [8] stands for this setting: dose: 200.0 mg/kg/injection, schedule: Q04DX003 (ip), vehicle: Klucel (hydroxypropylcellulose) (HPC).
[9] abbreviates: dose: 25.0 mg/kg/injection, schedule: Q04DX003 (ip), vehicle: Klucel (hydroxypropylcellulose) (HPC).
Setting [10] is: dose: 50.0 mg/kg/injection, schedule: Q04DX003 (ip), vehicle: Klucel (hydroxypropylcellulose) (HPC).
Setting [11] is: dose: 100.0 mg/kg/injection, schedule: Q04DX003 (ip), vehicle: Klucel (hydroxypropylcellulose) (HPC).

Several values for one entry are separate records, joined by “and”; a condition that tells them apart may be missing. Identical values can stand only once. Inconclusive results and toxic doses are left out.

For `CC[C@@H](O)C[C@H]1CCC[C@@]2(C[C@@H]3OC(=O)/C=C/[C@@](C)(O)[C@@H](O)[C@H](C)[C@@H](O)[C@H](OC4CCC(N(C)C)C(C)O4)[C@@H](O)[C@](C)(O)CCCCC/C=C/[C@@H]4CC(C)(C)O[C@@]4(O)C[C@H](O2)[C@H]3C)O1` (stereo not given in full), the T/C is, setting by setting: (dose: 0.04 mg/kg/injection, schedule: Q04DX003 (ip), vehicle: saline) 91 % of control; (dose: 0.06 mg/kg/injection, schedule: Q04DX003 (ip), vehicle: saline) 95 % of control; (dose: 0.1 mg/kg/injection, schedule: Q04DX003 (ip), vehicle: saline) 108 % of control; (dose: 7.5 micrograms/kg/injection, schedule: Q01DX009 (ip), vehicle: saline) 100 % of control; (dose: 7.5 micrograms/kg/injection, schedule: Q04DX003 (ip), vehicle: saline) 104 % of control; (dose: 15.0 micrograms/kg/injection, schedule: Q01DX009 (ip), vehicle: saline) 109 % of control. The T/C was 104 % of control (dose: 15.0 micrograms/kg/injection, schedule: Q04DX003 (ip), vehicle: saline); 104 % of control (dose: 30.0 micrograms/kg/injection, schedule: Q01DX009 (ip), vehicle: saline); 113 % of control (dose: 30.0 micrograms/kg/injection, schedule: Q04DX003 (ip), vehicle: saline).

`O=NNc1ccccn1`: the T/C reads like this: (dose: 3.12 mg/kg/injection, schedule: Q01DX009 (ip), vehicle: saline) 105 % of control; (dose: 12.5 mg/kg/injection, schedule: Q01DX009 (ip), vehicle: saline) 214 % of control; (dose: 25.0 mg/kg/injection, schedule: Q01DX009 (ip), vehicle: saline) 112 % of control.

On to `COC1=CC(=O)C(Cl)=C(OC)C1=O`, for which the T/C (dose: 0.78 mg/kg/injection, schedule: Q01DX009 (ip), vehicle: saline) is 113 % of control; the T/C (dose: 1.56 mg/kg/injection, schedule: Q01DX009 (ip), vehicle: saline) is 113 % of control; the T/C under setting [1] was 110 % of control; the T/C (dose: 3.13 mg/kg/injection, schedule: Q01DX009 (ip), vehicle: saline) is 104 % of control.

`CS(=O)(=O)OCCCOS(C)(=O)=O`: the T/C is, setting by setting: (dose: 12.5 mg/kg/injection, schedule: Q01DX009 (ip), vehicle: Klucel (hydroxypropylcellulose) (HPC)) 109 % of control; under setting [2], 109 % of control; under setting [3], 119 % of control; under setting [4], 95 % of control; under setting [5], 109 % of control; under setting [6], 118 % of control.

Turning to `Cc1c(-c2ccc(C(=N)N)cc2)oc(-c2ccc(C(=N)N)cc2)c1C`, under setting [1], the T/C was 109 % of control.

On to `CCc1n[nH]c(=O)c2c3ccccc3nn12`, for which the T/C (dose: 100.0 mg/kg/injection, schedule: Q01DX001 (ip), vehicle: saline with Tween-80) is 96 % of control; the T/C (dose: 200.0 mg/kg/injection, schedule: Q01DX001 (ip), vehicle: saline with Tween-80) is 105 % of control; the T/C (dose: 400.0 mg/kg/injection, schedule: Q01DX001 (ip), vehicle: saline with Tween-80) is 100 % of control.

For `Cc1cc(N(CCCl)CCCl)ccc1/C=N\Nc1nncn1N`, the T/C is, setting by setting: (dose: 35.0 mg/kg/injection, schedule: Q01DX007 (ip), vehicle: Klucel (hydroxypropylcellulose) (HPC)) 157 % of control; (dose: 45.0 mg/kg/injection, schedule: Q04DX003 (ip), vehicle: Klucel (hydroxypropylcellulose) (HPC)) 120 % of control; (dose: 50.0 mg/kg/injection, schedule: Q01DX007 (ip), vehicle: Klucel (hydroxypropylcellulose) (HPC)) 175 % of control; (dose: 75.0 mg/kg/injection, schedule: Q01DX007 (ip), vehicle: Klucel (hydroxypropylcellulose) (HPC)) 211 % of control; under setting [4], 118 % of control; (dose: 132.0 mg/kg/injection, schedule: Q04DX003 (ip), vehicle: Klucel (hydroxypropylcellulose) (HPC)) 213 % of control. Also, the T/C runs as follows: (dose: 132.0 mg/kg/injection, schedule: Q04DX003 (ip), vehicle: saline) 163 % of control; under setting [7], 90 % of control; under setting [8], 218 % of control; (dose: 300.0 mg/kg/injection, schedule: Q04DX003 (ip), vehicle: Klucel (hydroxypropylcellulose) (HPC)) 122 % of control; (dose: 300.0 mg/kg/injection, schedule: Q04DX003 (ip), vehicle: saline) 90 % of control.

For the compound `CC(C)(C)c1cc([N+](=O)[O-])cc(C(C)(C)C)c1O`, the T/C under setting [2] was 90 % of control and 100 % of control; the T/C under setting [9] is 100 % of control; the T/C under setting [3] was 96 % of control and 109 % of control; the T/C under setting [10] was 86 % of control and 88 % of control; the T/C under setting [4] was 95 % of control and 96 % of control; the T/C under setting [11] was 86 % of control and 88 % of control. For the same compound, under setting [8], the T/C was 92 % of control.

For the compound `Nc1ncnc2c1ncn2C1CCCO1` (stereo not given), the T/C runs as follows: (dose: 50.0 mg/kg/injection, schedule: Q01DX009 (ip), vehicle: saline with Tween-80) 100 % of control; (dose: 100.0 mg/kg/injection, schedule: Q01DX009 (ip), vehicle: saline with Tween-80) 109 % of control; under setting [5], 100 % of control; (dose: 200.0 mg/kg/injection, schedule: Q01DX009 (ip), vehicle: saline with Tween-80) 109 % of control; under setting [6], 95 % of control.

As for `CCOC(=O)C(C(=O)OCC)C(=O)c1cc(-c2ccc(Cl)c(Cl)c2)nc2c(Cl)cc(Cl)cc12`, the T/C is 100 % of control under setting [3] and 91 % of control under setting [7].

For `CC(=N\O)/C(C)=N/O.CC(=N\O)/C(C)=N/O.CC1CC[N-]CC1.CC1CC[N-]CC1.CC1CC[N-]CC1.CC1CC[N-]CC1.[Cl][Rh][Cl].[Pt+2]`, the T/C runs as follows: (dose: 0.39 mg/kg/injection, schedule: Q01DX009 (ip), vehicle: water) 110 % of control; (dose: 0.78 mg/kg/injection, schedule: Q01DX009 (ip), vehicle: water) 110 % of control; (dose: 1.56 mg/kg/injection, schedule: Q01DX009 (ip), vehicle: water) 98 % of control; (dose: 6.25 mg/kg/injection, schedule: Q01DX009 (ip), vehicle: water) 94 % of control; (dose: 12.5 mg/kg/injection, schedule: Q01DX009 (ip), vehicle: water) 99 % of control.

Regarding `CC(N)C(=O)NCCN(C)C` (stereo not given), the T/C runs as follows: (dose: 50.0 mg/kg/injection, schedule: Q01DX005 (ip), vehicle: saline) 95 % of control; (dose: 100.0 mg/kg/injection, schedule: Q01DX005 (ip), vehicle: saline) 107 % of control; (dose: 200.0 mg/kg/injection, schedule: Q01DX005 (ip), vehicle: saline) 99 % of control.

For `CCOCCN1CCN(CCCN2c3ccccc3Sc3ccc(C(F)(F)F)cc32)CC1`, the T/C is 107 % of control and 112 % of control (dose: 6.25 mg/kg/injection, schedule: Q04DX003 (ip), vehicle: saline); 116 % of control (dose: 12.5 mg/kg/injection, schedule: Q04DX003 (ip), vehicle: saline); 101 % of control (dose: 50.0 mg/kg/injection, schedule: Q04DX003 (ip), vehicle: saline).

Turning to `O=C(NN=C1CCCCC1)c1ccccc1`, the T/C reads like this: under setting [9], 100 % of control; under setting [3], 100 % of control; under setting [10], 100 % of control; (dose: 56.25 mg/kg/injection, schedule: Q01DX001 (ip), vehicle: Klucel (hydroxypropylcellulose) (HPC)) 100 % of control; under setting [4], 110 % of control; under setting [11], 86 % of control. Further, the T/C is 104 % of control (dose: 112.5 mg/kg/injection, schedule: Q01DX001 (ip), vehicle: Klucel (hydroxypropylcellulose) (HPC)); 104 % of control (dose: 150.0 mg/kg/injection, schedule: Q04DX003 (ip), vehicle: Klucel (hydroxypropylcellulose) (HPC)); 109 % of control (dose: 225.0 mg/kg/injection, schedule: Q01DX001 (ip), vehicle: Klucel (hydroxypropylcellulose) (HPC)); 95 % of control (dose: 225.0 mg/kg/injection, schedule: Q04DX003 (ip), vehicle: Klucel (hydroxypropylcellulose) (HPC)).

Consider `O=[N+]([O-])c1ccc(S(=O)(=O)Cc2ccccc2)c2nonc12`, for which, under “dose: 25.0 mg/kg/injection, schedule: Q01DX009 (ip), vehicle: saline with Tween-80”, the T/C is 112 % of control.

Regarding `O=C1c2ccccc2C(=O)C1C(C[N+](=O)[O-])c1ccccc1` (stereo not given), the T/C reads like this: (dose: 25.0 mg/kg/injection, schedule: Q01DX005 (ip), vehicle: saline with Tween-80) 118 % of control; (dose: 50.0 mg/kg/injection, schedule: Q01DX005 (ip), vehicle: saline with Tween-80) 99 % of control.
